Test results reported in US5032595A, “Method of stimulating steroidogenesis with alpidem” (FIDIA-Georgetown Institute for the Neurosciences, priority 1989, dated 1991).

Assays:
[1] = target: T1, peripheral-type benzodiazepine receptor (PBR) in Y-1 cells (Mus musculus, UniProt P50637); experiment: [3H]PK 11195 binding in Y-1 adrenocortical cells; conditions: 37° C.; for rank order of compound displacement potency against [3H]PK 11195 binding: FIG. 2a
T1 construct: Y-1 cell cultures were scraped from the flasks; host or cells: Y-1 mouse adrenal tumor cells
Experimental: (§1) Cells--The Y-1 adrenal mouse tumor cell line used in these studies was obtained from the American Type Culture Collection (ATCC #CCL 79). Stock cultures were grown in modified Waymouth's MB752/l medium containing 20 mM HEPES, 1.2 g/l NaHCO3, 15% horse serum and 2.5% fetal calf serum, pH 7.4. Before use the cells were washed three times at 30 min intervals, with serum-free media in order to eliminate serum components that may interfere with the assays and were incubated for the indicated time periods in the presence of the drugs under investigation. Bovine fasciculata-reticularis and adrenocortical cells from adult (300 g) Sprague-Dawley rats were prepared as previously described by Yanagibashi et al, (1989) Endocrinology 124; 2838-2391.
Radioligand binding assays--Y-1 cell cultures were scraped from the flasks ([…]) in 5 ml of Kreb's buffer, dispersed by repetitive pipetting, and centrifuged at 1,200 × g for 5 min. The cell pellets were resuspended in Kreb's buffer and larger cellular aggregates were allowed to settle for 5 min. The finely dispersed cell suspensions were taken for further experimentation.
Binding assays were performed in a total volume of 250-400 ul of Kreb's buffer containing [^3 H]PK 11195 (0.07-20 nM) with 5 ug of cellular protein. Incubations were conducted at 37° C. for 30 min and bound radioligand was measured by filtration through Whatman GF/C filters followed by four rapid 5 ml washes with 25 mM Tris-HCl (pH 7.4) containing 1 uM PK 11195. Filters were subjected to liquid scintillation counting. Nonspecific binding was measured in the presence (of 10 uM nonradioactive PK 11195.

Y-1 adrenocortical cells = experiment: Steroid (20-hydroxyprogesterone) secretion in Y-1 cells; assay type: cell-based, mouse
Experimental: as §1
Measurement of steroid production--These experiments were performed with the Y-1 cells plated in 12--22 mm wells and incubated for the times shown at a final volume of 1 ml of serum-free media at 37° C. […] Steroid production was determined by measuring 20-γ-hydroxyprogesterone, the main steroid product of these cells, using a radioimmunoassay with an antibody donated by Dr. G. Nieswender (Univ. of Colorado, Fort Collins), under the process described in Kowal J. (1970), Recent Progress in Hormone Research 26, 623-687 and Schimmer B.P. (1981) in Functionally Differentiated Cell Lines, ed. […]

[2] = tested on: purified rat Leydig cells; experiment: Testosterone production by purified rat Leydig cells, basal and hCG stimulated; conditions: for Testosterone, No Additions / effect on testosterone production (in words) / stimulation of testosterone production: basal; for Testosterone, No Additions / Testosterone, hCG (50 ng/ml): 4 hours at 32° C., mean ± S.D. n = 3; for Testosterone, No Additions: control 1.30 ± 0.20; for Testosterone, hCG (50 ng/ml): control 15.13 ± 2.05; for effect on testosterone production (in words) / stimulation of testosterone production: purified rat Leydig cells; for stimulation of testosterone production: 240 min
MA-10 Leydig cells = experiment: Progesterone production in MA-10 Leydig cells; assay type: cell-based, mouse; conditions: MA-10 cells, 4 hours incubation
Experimental: (§2) Cells--The MA-10 cell line originally cloned from the solid M5480P mouse Leydig cell tumor used in these experiments was obtained from Dr. Mario Ascoli (The Population Council, Rockefeller University, N.Y.). Stock cultures were grown in modified Waymouth's MB752/1 medium containing 20 mM HEPES, 1.2 g/l NaHCO3 and 15% horse serum, pH 7.4 as described by Ascoli (1981) Endocrinology 108, 88-95. Before use, the MA-10 Leydig cells were washed three times, in 30 min intervals, with serum-free media in order to eliminate serum components that may interfere with the assays and incubated for the indicated periods of time in the presence of the indicated substances. Testicular interstitial cells were prepared by enzymatic dissociation of testes obtained from adult Sprague-Dawley (300 g) rats. This preparation contained 20-30% 3β-hydroxysteroid dehydrogenase positive cells (Leydig cells). Leydig cells were further purified using discontinuous Percoll gradient centrifugation as described by Papadopoulos et al., 1985 FEBS Letters 188, 312-316. The preparations obtained contained 75-85% Leydig cells as shown by the histochemical staining for 3β-hydroxysteroid dehydrogenase by the procedure of Papadopoulos et al., FEBS Letters 188, supra. [^3 H]PK 11195 binding assays--Cells were scraped from 75 cm^2 culture flasks into 5 ml of Kreb's buffer, dispersed by trituration, and centrifuged at 1,200 × g for 5 min. The cell pellets were resuspended in buffer and larger cell aggregates were allowed to settle to the bottom of the tube before the cell suspension was retrieved for experimentation.
Steroid Biosynthesis--These experiments were performed with the MA-10 Leydig cells plated in 12×22 mm wells and incubated for the times shown and in the presence of the indicated substances at a final volume of 1 ml of serum-free media at 37° C. […]
Progesterone and 20-γ-hydroxyprogesterone production for the MA-10 cells, and testosterone accumulation for the rat Leydig cells were measured by means of radioimmunoassay. […]

[3] = Serum testosterone after intravenous alpidem in rats (dosing studies); assay type: in vivo; conditions: adult Sprague-Dawley rats
Experimental: Alpidem was suspended in isotonic saline by sonication and administered intravenously to adult Sprague-Dawley rats (200-300 g). The doses used ranged from 0.01-1.5 mg/kg, the highest concentration being just below the level needed for behavioral effects to be observed. Control rats were injected with saline alone to serve as control for measurement of basal serum levels of testosterone. After specific times the rats were killed by decapitation and blood was collected. Serum was prepared and testosterone was measured by radioimmunoassay. Each point included three rats for all permutations of each time point and concentration of alpidem used.

PBR in MA-10 cells = target: T2, PBR in MA-10 cells (Mus musculus, UniProt P50637); experiment: [3H]PK 11195 binding in MA-10 Leydig cells; conditions: 37° C.
T2 construct: endogenous in cells; host or cells: MA-10 mouse Leydig tumor cells (from Dr. Mario Ascoli)
Experimental: as §2
[^3 H]PK 11195 binding studies on 5 ug of protein from the cell suspensions were performed in 250-400μl of Kreb's buffer at 37° C., essentially the same conditions under which the
effects of the compounds on steroidogenesis were studied. Nonspecific binding was determined in the presence of 10 μM PK 11195. […] Radioactivity trapped on the filters was determined by liquid scintillation counting. […]

[4] = read-out: dissociation constant (Scatchard analysis)

T1 sequence (P50637 whole entry): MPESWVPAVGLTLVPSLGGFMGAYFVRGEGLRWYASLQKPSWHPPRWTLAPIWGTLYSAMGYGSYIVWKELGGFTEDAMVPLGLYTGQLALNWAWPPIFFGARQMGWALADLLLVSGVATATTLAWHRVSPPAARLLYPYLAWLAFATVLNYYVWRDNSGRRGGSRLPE
T2 sequence (P50637 whole entry): as above

Cc1ccc(-c2nc3ccc(C)cn3c2CC(=O)N(C)C)cc1 [zolpidem]
rank order of compound displacement potency against [3H]PK 11195 binding [1]: alpidem>PK 11195>PK 14067>4'-chlorodiazepam>zolpidem>PK 14608, diazepam>flunitrazepam>clonazepam>flumazenil

CN1C(=O)CN=C(c2ccccc2F)c2cc([N+](=O)[O-])ccc21 [flunitrazepam]
rank order of compound displacement potency against [3H]PK 11195 binding [1]: alpidem>PK 11195>PK 14067>4'-chlorodiazepam>zolpidem>PK 14608, diazepam>flunitrazepam>clonazepam>flumazenil

CCOC(=O)c1ncn2c1CN(C)C(=O)c1cc(F)ccc1-2 [flumazenil]
effect on steroid production (in words) (Y-1 adrenocortical cells): failed to stimulate steroid production | rank order of compound displacement potency against [3H]PK 11195 binding [1]: alpidem>PK 11195>PK 14067>4'-chlorodiazepam>zolpidem>PK 14608, diazepam>flunitrazepam>clonazepam>flumazenil

O=C1CN=C(c2ccccc2Cl)c2cc([N+](=O)[O-])ccc2N1 [clonazepam]
Testosterone, No Additions ([2]; compound 10^-5 M): 1.16 ± 0.11 ng/10^5 cel s/4 hours | Testosterone, hCG (50 ng/ml) ([2]; compound 10^-5 M): 14.90 ± 2.22 ng/10^5 cel s/4 hours | effect on testosterone production (in words) [2]: no effect | effect on steroid production (in words) (Y-1 adrenocortical cells): failed to stimulate steroid production | rank order of compound displacement potency against [3H]PK 11195 binding [1]: alpidem>PK 11195>PK 14067>4'-chlorodiazepam>zolpidem>PK 14608, diazepam>flunitrazepam>clonazepam>flumazenil

CCCN(CCC)C(=O)Cc1c(-c2ccc(Cl)cc2)nc2ccc(Cl)cn12 [alpidem]
Testosterone, No Additions ([2]; compound 10^-7 M): 2.35 ± 0.27 ng/10^5 cel s/4 hours | Testosterone, hCG (50 ng/ml) ([2]; compound 10^-7 M): 15.02 ± 2.31 ng/10^5 cel s/4 hours | stimulation of testosterone production [2]: about 2 fold | stimulation of progesterone production (MA-10 Leydig cells): 3 to 4 fold | rank order of compound displacement potency against [3H]PK 11195 binding [1]: alpidem>PK 11195>PK 14067>4'-chlorodiazepam>zolpidem>PK 14608, diazepam>flunitrazepam>clonazepam>flumazenil | time for which elevated testosterone levels were maintained [3]: at least 4 hours | increase in serum testosterone levels ([3]; doses greater than or equal to 0.01 mg/kg): 2-4 times above control levels

CC(Cc1cc(-c2ccccc2)nc2ccccc12)C(=O)N(C)C (single isomer, unassigned; (+)) [PK 14068, (+) N,N-dimethyl-x-methyl-2-phenyl-4-quinoline propanamide]
Testosterone, No Additions ([2]; compound 10^-5 M): 1.16 ± 0.15 ng/10^5 cel s/4 hours | Testosterone, hCG (50 ng/ml) ([2]; compound 10^-5 M): 13.50 ± 1.51 ng/10^5 cel s/4 hours | rank order of compound displacement potency against [3H]PK 11195 binding [1]: alpidem>PK 11195>PK 14067>4'-chlorodiazepam>zolpidem>PK 14608, diazepam>flunitrazepam>clonazepam>flumazenil

CN1C(=O)CN=C(c2ccccc2)c2cc(Cl)ccc21 [diazepam]
Testosterone, No Additions ([2]; compound 10^-5 M): 1.90 ± 0.10 ng/10^5 cel s/4 hours | Testosterone, hCG (50 ng/ml) ([2]; compound 10^-5 M): 14.96 ± 3.09 ng/10^5 cel s/4 hours | effect on testosterone production (in words) [2]: less potent | rank order of compound displacement potency against [3H]PK 11195 binding [1]: alpidem>PK 11195>PK 14067>4'-chlorodiazepam>zolpidem>PK 14608, diazepam>flunitrazepam>clonazepam>flumazenil

CCC(C)N(C)C(=O)c1cc2ccccc2c(-c2ccccc2Cl)n1 (stereo not drawn) [PK 11195, 1-(2-chlorophenyl)-N-methyl-N-(l-methylpropyl)-3-isoquinoline carboxamide]
Testosterone, No Additions ([2]; compound 10^-6 M): 2.33 ± 0.21 ng/10^5 cel s/4 hours | Testosterone, hCG (50 ng/ml) ([2]; compound 10^-6 M): 14.86 ± 1.51 ng/10^5 cel s/4 hours | stimulation of testosterone production [2]: about 2 fold | stimulation of progesterone production (MA-10 Leydig cells): 3 to 4 fold | Bmax [1]: 54 pmol/mg of protein | time to reach binding equilibrium [1]: ≤ 15 min | rank order of compound displacement potency against [3H]PK 11195 binding [1]: alpidem>PK 11195>PK 14067>4'-chlorodiazepam>zolpidem>PK 14608, diazepam>flunitrazepam>clonazepam>flumazenil | Kd [1, 4]: 1.8 nM | density of binding sites (PBR in MA-10 cells): 56 pmol/mg of protein | time to reach steady-state specific binding (PBR in MA-10 cells): 10 min | Kd (PBR in MA-10 cells; [4]): 1.8 nM

CC(Cc1cc(-c2ccccc2)nc2ccccc12)C(=O)N(C)C (single isomer, unassigned; (-)) [PK 14067, (-) N,N-dimethyl-x-methyl-2-phenyl-4-quinoline propanamide]
Testosterone, No Additions ([2]; compound 10^-6 M): 2.20 ± 0.30 ng/10^5 cel s/4 hours | Testosterone, hCG (50 ng/ml) ([2]; compound 10^-6 M): 14.13 ± 1.49 ng/10^5 cel s/4 hours | stimulation of progesterone production (MA-10 Leydig cells): 3 to 4 fold | rank order of compound displacement potency against [3H]PK 11195 binding [1]: alpidem>PK 11195>PK 14067>4'-chlorodiazepam>zolpidem>PK 14608, diazepam>flunitrazepam>clonazepam>flumazenil
